This note sets out measurements from patent publication US20220348565A1, “PHARMACEUTICAL COMPOUNDS” (SENTINEL ONCOLOGY LIMITED, priority 2019, published 2022).

For data set [1], the system named is U87MG cells. The data set is described as follows: U87MG human glioblastoma cell viability, SRB assay, 72 hours. It counts as cell-based. Here is the method:
The following protocol was used to measure the effects of compounds of the invention on U87MG cell viability.
U87MG cells were grown in their recommended growth media/supplements (ATCC). Cells were seeded at a concentration of 5000 cells per well into 96 well plates overnight at 37° C., 5% CO2. Cells were treated with relevant concentrations of test compound for 72 hours. After 72 hours incubation, viability was established using sulforhodamine B (SRB) colorimetric assay. Percentage viability was calculated against the mean of the DMSO treated control samples, and IC50 values for inhibition of cell growth were calculated using GraphPad Prism software by nonlinear regression (4 parameter logistic equation).

The subject of data set [2] is U87MG cells. The data set is described as follows: Mitotic phenotype study in U87MG cells. The data set is classed as cell-based, human. To be noted: 0.03 μM, listed as A-1. How it is done:
Distinct mitotic phenotypes are induced following inhibition of PLK1 and PLK4 in cells. […] Centriole assembly is controlled by PLK4, with inhibitors inducing a multipolar spindle phenotype due to centrosome defects which results in abnormal cyokinesis (Wong et al., 2015. Science 348(6239); 1155-1160). Cells were plated at 10 000/well in 96-well plates and incubated overnight. The following day atropisomer A-2 stocks in DMSO were diluted in medium then added to cells with a maximum final DMSO concentration on cells of 0.2%. Cells were incubated with the compound for 24 hours then fixed in 3.7% formaldehyde. Cells were permeabilised with 0.1% Triton X-100 then incubated with anti-phospho-histone H3 (Ser10) antibody (Abcam). The cells were washed with PBS then incubated with AlexaFluor 488 labelled goat anti-rabbit IgG (Invitrogen) in the presence of 4 ug/mL Hoechst 33342 (Invitrogen). Cells were washed in PBS then imaged on an Arrayscan VTi HCS instrument using the Target Activation V4 Bioapplication. A user-defined threshold was applied to identify mitotic cells based on the intensity of phospho-histone H3 staining. In a separate study, following the above protocol and using single compound concentrations of 0.03 μM for each of atropisomer A-1 and atropisomer A-2, the frequency of observed mitotic phenotypes in U87MG cells was manually assessed and classified into the following phenotypes: non-congressed chromosomes, multipolar spindles/abnormal cytokinesis, monopolar spindles, normal prometaphase, normal metaphase for each of A-1 and A-2.

Data set [3] concerns panel of 48 cancer-derived cell lines. The data set is described as follows: Proliferation assay on diverse cancer cell line panel, CellTiter-Glo, 72 hours. It counts as cell-based. To be noted: 72 hours. How it is done: Screening against diverse cancer cell lines was performed to identify tumour types displaying sensitivity to atropisomers A-1 and A-2. A panel of 48 cancer-derived cell lines was screened in a high-throughput proliferation assay using dilutions of atropisomers A-1/A-2. Cell lines that were screened included those representing cancer of the pancreas, large intestine/colorectum, lung, brain and nerves, and lymphoma and leukaemia cell lines. Cell lines were treated with serial half-log dilutions of compound and assayed 72 hours later for proliferation using CellTiter-Glo Assay (Promega). IC50 values were calculated by fitting the dose-response data using a nonlinear regression model.

The nature of data set [4]: Chiral stability (interconversion) of isolated atropisomers on heating, chiral HPLC. The settings on record: for % ee of sample @ 40° C. / % ee sample @ 80° C.: EtOH solution, listed as A-1. The data set is classed as physicochemical. Here is the method:
Stability studies were carried out on the isolated atropisomers, atropisomers A-1 and A-2. To assess the interconversion of atropisomer A-1 and atropisomer A-2 chiral stability was monitored at 40° C. and 80° C. […] 1. 2×1 mg of pure atropisomer was dissolved in 1 mL of EtOH in a sealed-dram vial. 2. One set of vials was heated at 40° C. and another set at 80° C. 3. […] 4. Analysis was carried out at the following timepoints: 0 h, 24 h, 48 h, 72 h, 96 h and 240 h for the samples kept at 40° C. and 24 h, 96 h and 240 h for the samples kept at 80° C. using Chiral HPLC method 5

Data set [5] can be described thus: Gravimetric solubility in water. The data set is classed as physicochemical. Here is the method: The solubility in water of the salts was measured using a gravimetric solubility protocol.
1 ml of water was charged into crystallisation tubes. The solid was weighed into a tared glass vial, added in portions to the solutions and the vial weighed after each addition until a hazy solution was observed. The amount in mg was then calculated to give the solubility in mg/ml.
The solubility in water of the salts was measured using a gravimetric solubility protocol. Thus, 1 ml of water was charged into crystallisation tubes. The solid was weighed into a tared glass vial, added in portions to the solutions and the vial weighed after each addition until a hazy solution was observed. The amount in mg was then calculated to give the solubility in mg/mL.

Data set [6] is described as follows: Gravimetric vapour sorption (GVS). It counts as physicochemical. Here is the method:
Sorption isotherms were obtained using a Hiden Isochema moisture sorption analyser (model IGAsorp), controlled by IGAsorp Systems Software V6.50.48. The sample was maintained at a constant temperature (25° C.) by the instrument controls. The humidity was controlled by mixing streams of dry and wet nitrogen, with a total flow of 250 ml·min-1. The instrument was verified for relative humidity content by measuring three calibrated Rotronic salt solutions (10-50-88%). The weight change of the sample was monitored as a function of humidity by a microbalance (accuracy +/−0.005 mg). A defined amount of sample was placed in a tared mesh stainless steel basket under ambient conditions. A full experimental cycle typically consisted of three scans (sorption, desorption and sorption) at a constant temperature (25° C.) and 10% RH intervals over a 0-90% range (60 minutes for each humidity level).

Where a name gives a salt, the structure may show the parent alone.

The IC50 is the concentration that gives 50% inhibition.

`CN(C)CCNC(=O)c1ccc(-c2ccc(-c3ccc(Cl)cc3)n2-c2ccccc2C(F)(F)F)cc1` (single isomer, unassigned) [Atropisomer A-1, 4-[5-(4-chlorophenyl)-1-[2-(trifluoromethyl)phenyl]pyrrol-2-yl]-N-[2-(dimethylamino)ethyl]benzamide]: the IC50 with U87MG cells [1] was 4.6 µM; in data set [3] (A549, Lung), 9.19 µM; in data set [3] (A-172, Brain & Nerves), 7.07 µM; in data set [3] (AsPC-1, Pancreas) it was greater than 10 µM; in data set [3] (BxPC-3, Pancreas), 6.97 µM; in data set [3] (COLO 205, Large intestine/Colorectum), 6.75 µM. The concentration for half-maximal inhibition (IC50) is greater than 10 µM in data set [3] (Capan-1, Pancreas); 9.26 µM in data set [3] (D283 Med, Brain & Nerves); 5.64 µM in data set [3] (DOHH-2, Blood/Lymphoma); 7 µM in data set [3] (Daoy, Brain & Nerves); 7.17 µM in data set [3] (Daudi, Blood/Lymphoma); 7.42 µM in data set [3] (GRANTA-519, Blood/Lymphoma). For the same molecule, the IC50 amounted to 9.94 µM in data set [3] (HBL-1, Blood/Lymphoma); 8.26 µM in data set [3] (HCC44, Lung); 7.36 µM in data set [3] (HOT 116, Large intestine/Colorectum, listed as A-1); 4.53 µM in data set [3] (HT-29, Large intestine/Colorectum); 4.71 µM in data set [3] (JVM-2, Blood/Lymphoma); 7.94 µM in data set [3] (JeKo-1, Blood/Lymphoma). For the same molecule, the IC50 in data set [3] (KG-1, Blood/Leukaemia) was greater than 10 µM; in data set [3] (Kasumi-1, Blood/Leukaemia), 5.13 µM; in data set [3] (LN-229, Brain & Nerves), 7.37 µM; in data set [3] (LoVo, Large intestine/Colorectum), 8.36 µM; in data set [3] (MIA PaCa-2, Pancreas) it was 9.17 µM; in data set [3] (ML-2, Blood/Leukaemia, listed as A-1), 4.01 µM. Further, the IC50 was 6.49 µM in data set [3] (MV-4-11, Blood/Leukaemia); 7.05 µM in data set [3] (NAMALWA, Blood/Lymphoma); 8.13 µM in data set [3] (NCI-H460, Lung); 8.25 µM in data set [3] (NCI-H1299, Lung); greater than 10 µM in data set [3] (NCI-H1373, Lung); 7.73 µM in data set [3] (NCI-H1792, Lung). Moreover, the IC50 in data set [3] (NCI-H1975, Lung) is 5.14 µM; in data set [3] (OCI-LY-19, Blood/Lymphoma), 6.67 µM; in data set [3] (PANC-1, Pancreas), greater than 10 µM; in data set [3] (Panc 10.05, Pancreas) it was 9 µM; in data set [3] (RKO, Large intestine/Colorectum), 6.17 µM; in data set [3] (Raji, Blood/Lymphoma), 3.91 µM. Further, the IC50 stood at 3.99 µM in data set [3] (Ramos, Blood/Lymphoma); 7.78 µM in data set [3] (SK-MES-1, Lung); 7.01 µM in data set [3] (SU-DHL-2, Blood/Lymphoma); 3.98 µM in data set [3] (SU-DHL-6, Blood/Lymphoma); 8.35 µM in data set [3] (SVV620, Large intestine/Colorectum, listed as A-1); 7.55 µM in data set [3] (SW480, Large intestine/Colorectum). For the same molecule, the IC50 in data set [3] (SW1088, Brain & Nerves) was 8.49 µM; in data set [3] (T98G, Brain & Nerves) it was 5.26 µM; in data set [3] (Toledo, Blood/Lymphoma), greater than 10 µM; in data set [3] (U118 MG, Brain & Nerves) it was 7.6 µM; in data set [3] (U-2932, Blood/Lymphoma) it was 4.47 µM; in data set [3] (WSU-DLCL2, Blood/Lymphoma), 6.74 µM. Further, the IC50 in data set [3] (Z-138, Blood/Lymphoma) worked out at 7.04 µM. In addition, in the data set on U87MG cells [2], the “cells with abnormal cytokinesis” value stood at 24%. Besides, the “cells with non-congressed chromosomes” value in the data set with U87MG cells [2] is “No evidence”. For the same molecule, the “cells with normal mitotic phenotype” value in the data set on U87MG cells [2] is 76%. Further, the “% ee of sample @ 40° C.” value in data set [4] (0 h), in data set [4] (24 h), in data set [4] (48 h), in data set [4] (72 h), in data set [4] (96 h) and in data set [4] (10 days) was 100 % ee each time. The “% ee sample @ 80° C.” value in data set [4] (0 h), in data set [4] (24 h), in data set [4] (96 h) and in data set [4] (10 days) was 100 % ee in each case. Besides, in data set [4] (from stability of isolated atropisomers), the “atropisomer classification (LaPlante)” value is listed as “Class 3”. The “interconversion / racemization of atropisomers on heating” value in data set [4] (heating for 10 days at 40° C. and 80° C.) is on record as “no interconversion was observed”.
In the case of `CN(C)CCNC(=O)c1ccc(-c2ccc(-c3ccc(Cl)cc3)n2-c2ccccc2C(F)(F)F)cc1` [(+)-L-tartaric acid salt, (R)-2,4-[5-(4-chlorophenyl)-1-[2-(trifluoromethyl)-phenyl]pyrrol-2-yl]-N-[2-(dimethylamino)-ethyl]benzamide (+)-L-tartaric acid salt], the “water solubility compared with free base” value in data set [5] was “improved water solubility over the free base”. In data set [6] (at 90% RH), this molecule yielded a surface moisture uptake of less than 1%.
For the molecule `CN(C)CCNC(=O)c1ccc(-c2ccc(-c3ccc(Cl)cc3)n2-c2ccccc2C(F)(F)F)cc1.O=C(O)C(O)C(O)C(=O)O` [Tartrate Pattern B, (R)-4-[5-(4-chlorophenyl)-1-[2-(trifluoromethyl)phenyl]pyrrol-2-yl]-N-[2 (dimethylamino)ethyl]benzamide tartrate], in data set [6] (0-90% RH cycling, XRPD post GVS), the “solid form stability under GVS” value is “stable solid, only absorbing surface moisture with no change in form”. Further, the “moisture content before the first desorption” value in data set [6] (GVS, 25° C.) is reported as “ca. 0.3%”. The “moisture taken up between 80 and 90% RH” value in data set [6] (GVS, 25° C., 80-90% RH) was “ca. 0.8%”.
